Data on 1 molecule can be found in US9433572B2, “Pomegranate based skin protectant and topical application” (POM Wonderful, LLC, priority 2008, dated 2016).

Structures are written as SMILES.

The subject of the assay is lipid peroxyl radicals. Nature of the assay: In vivo bleaching of beta-carotene applied to the skin under UVA (lipid peroxyl radical scavenging). The conditions noted are these: human forearm skin, 2 mg/cm^2, UVA. The procedure:
The protective effect of pomegranate-derived skin cream from the Example 4 was determined by assessing lipid peroxyl free radical scavenging capacity on the skin. Free radicals have been implicated in many of undesirable aspects of skin aging whether due to intrinsic cause or to exposure to UV radiation. Carotenoids like beta-carotene are efficient antioxidants scavenging singlet molecular oxygen and peroxyl radicals generated in during photooxidation. The bleaching of carotenoids has been used to evaluate the auto-oxidation activity of natural products. This technique can be used to evaluate, in vivo in non-invasive way, the ability of skin cream products to scavenge lipid peroxyl radicals. Basically, the method includes measuring the bleaching of beta-carotene applied to the skin when irradiated by UVA. […] An individual skin type is determined by an Individual Topology Angle (ITA), which can be found by using the following formula: […]*)×180/3.1415. Dr. Scholl's® Round Adhesive callus pad (Schering-Plough, Kenilworth, N.J.) were placed on the volar surface of the designated forearm (pre-cleaned with alcohol) of subjects. […] A baseline chromameter reading is taken after all of the callus pads have been applied. 2 mg/cm^2 of test skin cream and the positive control are applied in duplicate to each of the 2 sites. This is accomplished by means of a pre-calibrated syringe or by weighing the appropriate test material amount in a weigh boat. The test product and positive control are allowed to set on the forearm at ambient temperature for 15 minutes. The chromameter is used to measure the b* parameter of the coloration of the treated skin. Measurements are taken on the treated and untreated sites. The beta-carotene solution is then applied by means of a finger cot to obtain a uniform, homgeous orange color on all sites (pre-treated and non-treated), excluding the two control sites. The chromameter is used to measure the b* component of each site, post-application of the beta-carotene. […] The total exposure to UVA radiation is 6.0 J/cm^2. […]

For `CC1=C(/C=C/C(C)=C/C=C/C(C)=C/C=C/C=C(C)/C=C/C=C(C)/C=C/C2=C(C)CCCC2(C)C)C(C)(C)CCC1` [®-carotene, beta-carotene], the “Mean of Color Index” value (at 10 minutes) was determined as 42%, the “Mean of Color Index” value (at 30 minutes) is 16% and the “Mean of Color Index” value (at 60 minutes) worked out at 0%.
